According to patent US8685658B2, “Compositions and methods for the treatment of diseases associated with aberrant cilia assembly and regulation” (Fox Chase Cancer Center, priority 2006, dated 2014):
Residue numbers refer to the chain shown, from its start. Names and notes keep the numbering of the source.

How the values were obtained:
[1] = test system: hTERT-RPE1 cells; test: serum-induced ciliary disassembly in ciliated hTERT-RPE1 cells; assay type: cell-based; settings: compounds added 2 hours prior to induction; tubacin and niltubacin 2 μM, GSK3 inhibitor 2 μM, FTI-277 50 nM
Experimental: hTERT-RPE1 cells were grown in DMEM with 10% fetal bovine serum (FBS). For analysis of ciliary disassembly, cells were plated at 30% confluence in plates containing glass cover slips, and starved for 48 hours (in Opti-MEM or regular DMEM, without added serum) to induce cilia formation, followed by treatments described hereinbelow. For siRNA treatment, cells were initially plated in DMEM/10% FBS in plates containing cover slips, and 12 hours later siRNA transfection was performed in Opti-MEM with Oligofectamine (Invitrogen) according to manufacturer recommendations, and fixed 48 hours after transfection, following treatments indicated in Results. The remaining cells on plate were lysed, then either directly analyzed by Western blot analysis, or used for immunoprecipitation (IP)-kinase reaction to measure AurA activity.
Cells were fixed with 4% paraformaldehyde (10 min) then methanol (5 min), permeabilized with 1% Triton-X100 in PBS, blocked in 1×PBS, 3% BSA, and incubated with antibodies using standard protocols. Primary antibodies included rabbit polyclonal anti-Aurora A and anti-phospho-AuroraA/T288, (Cell Signaling), mouse mAb anti-HEF1 (14A11), polyclonal anti-γ-tubulin (Sigma), anti-α-tubulin mAb (Sigma), anti-acetylated α-tubulin mAb (clone 6-11B-1, Sigma, and clone K(Ac)40 Biomol), anti-IFT88 and anti-IFT20 (gifts of G. Pazour), mouse anti-glutamylated tubulin (Sigma), and anti-HDAC6 (Upstate). Secondary antibodies labeled with Alexa-488, Alexa-568, and Alexa-633, and TOTO-3 dye to stain DNA, were from Molecular Probes/Invitrogen. DNA was co-stained in some experiments by propidium iodine (Sigma) or Draq5 (Alexis), Confocal microscopy was performed using a Radiance 2000 laser scanning confocal microscope ((Carl Zeiss, Thornwood, N.Y.) coupled to a Nikon Eclipse E800 upright microscope (Nikon). Statistical analysis of data by one-way ANOVA was performed using GraphPad Instat 3.0 (San Diego, Calif.).

[2] = test system: acetylated tubulin; test: intracellular levels of acetylated tubulin (Western blot); assay type: cell-based; settings: vs DMSO vehicle
Experimental: (§1) For microinjection, recombinant glutathione-S-transferase (GST), GST fused AurA mutants T288A and D274N) produced from BL21 (DE3) bacteria were purified using the MicroSpin GST Purification Module (Amersham Biotech.). Purified recombinant AurA was purchased from Upstate; this AurA was pre-activated based on incubation with ATP. […] To prepare lysates for Western blotting and IP, mammalian cells were disrupted by M-PER lysis buffer (Pierce) supplemented with EDTA-free protease inhibitor cocktail (Roche). Lysates used for IP were incubated overnight with antibody at 4° C., subsequently incubated for 2 hours with protein A/G-sepharose (Pierce), washed, and resolved by SDS-PAGE. Western blotting was performed using standard procedures and proteins visualized using the West-Pico system (Pierce). Antibodies used included mouse monoclonal antibody (mAb) anti-HEF1 2G9 (Pugacheva and Golemis, 2005), anti-α-tubulin mAb (Sigma), anti-AurA (BD Bioscience) for Western blotting, anti-AurA rabbit polyclonal (Cell Signaling) for IP, anti-Phospho-AurA/T288 (BioLegend), anti-Phospho-AurA/T288 (Cell Signaling), anti-HDAC6 rabbit polyclonal (Upstate; 1:5000), anti-HDAC2 rabbit polyclonal (Invitrogen) and mAb anti-β-actin (AC15, Sigma), anti-IFT88 and anti-IFT20. Secondary horseradish peroxidase (HRP)-conjugated antibodies were from Amersham Biotech.

[3] = test system: hTERT-RPE1 cells; test: FACS cell cycle profile after serum stimulation; assay type: cell-based
[4] = test system: hTERT-RPE1 cells; test: loss of cilia after microinjection of AurA proteins into ciliated hTERT-RPE1 cells; assay type: cell-based
Experimental: as §1
Microinjections were performed on a Nikon TE300 Microscope (Nikon, Melville, N.Y.) that was equipped with an Eppendorf Transjector 5246 semi-automatic microinjector and micromanipulator (Eppendorf, Westbury, N.Y.). […] Proteins were pre-filtered through a 0.2-μm Milliopore membrane and mixed with Dextran Green488 (Molecular Probes) to mark injected cells. Injected cells were incubated at 37° C. before fixation. Typically, 150 cells were microinjected in each of 3 experiments.

[5] = test system: hTERT-RPE1 cells; test: growth factor-induced disassembly of cilia in hTERT-RPE1 cells; assay type: cell-based; settings: 10 ng/ml
Experimental: FIG. 4. Growth factor-induced disassembly of cilia in hTERT-RPE1 cells. A. Time course of disassembly of cilia in cells treated with EGF, PDGF, and TGF-β. […] B. Western blot indicating T288-phosphorylated and total AurA in cells treated with PDGF or EGF, at times indicated after treatment. C. Immunofluorescence depicting cilia (red, acetylated a α-tubulin) and phospho-AurA (green) staining at the basal body at 2 hours after stimulation with PDGF, EGF, or serum. Phosphorylated AurA is apparent in PDGF- and serum-treated cells, but not EGF-treated cells: further, many well-formed cilia are apparent in EGF-treated cells (marked with asterisks) in contrast to other conditions. Scale bar represents […].
hTERT-RPE1 cells were grown in DMEM with 10% fetal bovine serum (FBS). For analysis of ciliary disassembly, cells were plated at 30% confluence in plates containing glass cover slips, and starved for 48 hours (in Opti-MEM or regular DMEM, without added serum) to induce cilia formation, followed by treatments described hereinbelow. […] The remaining cells on plate were lysed, then either directly analyzed by Western blot analysis, or used for immunoprecipitation (IP)-kinase reaction to measure AurA activity.

[6] = target: T1, in vitro translated and immunoprecipitated HDAC6, Q9UBN7
T1 chain: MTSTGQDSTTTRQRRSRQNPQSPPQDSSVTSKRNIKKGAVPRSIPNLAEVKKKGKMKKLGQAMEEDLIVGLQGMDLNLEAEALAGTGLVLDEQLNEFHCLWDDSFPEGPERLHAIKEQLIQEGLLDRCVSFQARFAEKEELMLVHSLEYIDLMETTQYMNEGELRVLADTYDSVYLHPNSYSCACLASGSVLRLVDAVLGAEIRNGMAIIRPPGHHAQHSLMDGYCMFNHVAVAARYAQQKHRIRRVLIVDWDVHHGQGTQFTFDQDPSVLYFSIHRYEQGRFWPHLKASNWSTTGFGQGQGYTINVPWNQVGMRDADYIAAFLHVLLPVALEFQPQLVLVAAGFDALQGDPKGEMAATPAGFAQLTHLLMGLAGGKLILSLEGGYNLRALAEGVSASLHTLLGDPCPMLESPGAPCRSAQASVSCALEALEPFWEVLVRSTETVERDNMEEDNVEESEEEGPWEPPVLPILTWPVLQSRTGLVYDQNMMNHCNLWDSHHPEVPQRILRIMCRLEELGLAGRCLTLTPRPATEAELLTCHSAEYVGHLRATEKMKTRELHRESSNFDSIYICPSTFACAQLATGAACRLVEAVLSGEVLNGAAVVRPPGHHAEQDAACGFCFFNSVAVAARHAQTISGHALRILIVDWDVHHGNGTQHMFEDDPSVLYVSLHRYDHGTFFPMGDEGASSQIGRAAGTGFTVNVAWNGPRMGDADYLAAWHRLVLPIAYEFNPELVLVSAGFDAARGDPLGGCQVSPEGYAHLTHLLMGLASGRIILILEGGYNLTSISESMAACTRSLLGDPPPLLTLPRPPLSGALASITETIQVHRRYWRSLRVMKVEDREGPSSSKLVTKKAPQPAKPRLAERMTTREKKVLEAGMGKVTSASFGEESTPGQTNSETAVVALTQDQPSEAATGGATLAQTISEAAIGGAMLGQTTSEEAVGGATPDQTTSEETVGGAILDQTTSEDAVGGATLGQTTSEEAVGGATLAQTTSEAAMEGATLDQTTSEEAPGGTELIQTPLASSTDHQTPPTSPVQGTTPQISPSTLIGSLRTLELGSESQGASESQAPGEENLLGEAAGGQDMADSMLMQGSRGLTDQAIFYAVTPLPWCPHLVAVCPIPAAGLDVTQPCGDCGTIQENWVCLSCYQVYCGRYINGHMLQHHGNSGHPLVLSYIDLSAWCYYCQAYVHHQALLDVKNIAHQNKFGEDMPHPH

[7] = target: recombinant glutathione-S-transferase (GST)
[8] = 0.05 μM protein microinjected, low serum medium

## COC(=O)[C@H](CCSC)NC(=O)c1ccc(NC[C@@H](N)CS)cc1-c1ccccc1 [FTI]
[1]
  serum-induced ciliary disassembly: do not inhibit

## O=C(O)CCCCCCC(=O)Nc1ccc([C@H]2O[C@@H](CSc3nc(-c4ccccc4)c(-c4ccccc4)o3)C[C@@H](c3ccc(CO)cc3)O2)cc1 [niltubacin]
[2]
  levels of acetylated tubulin in treated cells: not
[1]
  serum-induced ciliary disassembly: no effect

## CC(/C=C/C(=O)NO)=C\[C@@H](C)C(=O)c1ccc(N(C)C)cc1 [trichostatin A (TSA), trichostatin A]
[2]
  levels of acetylated tubulin in treated cells: increased
[1]
  serum-induced ciliary disassembly: completely blocked

## O=C(CCCCCCC(=O)Nc1ccc([C@H]2O[C@@H](CSc3nc(-c4ccccc4)c(-c4ccccc4)o3)C[C@@H](c3ccc(CO)cc3)O2)cc1)NO [tubacin]
[3]; 2 h
  cell cycle profile at 2 h after serum stimulation: neither tubacin treatment nor siRNA to HDAC6 influenced cell cycle profile
[3]; later time point (18-24 h)
  cell cycle profile at the later time point after serum stimulation: accumulation in G2
[2]
  levels of acetylated tubulin in treated cells: increased
[4]; cells pre-treated for 3 hours with tubacin before aAurA microinjection
  ability of microinjected AurA to disassemble cilia: substantially limited
[1]
  serum-induced ciliary disassembly: completely blocked

## PDGF
[5]
  ciliary disassembly response to growth factor: partial response

B1: recombinant activated AurA (Upstate) (protein)
chain: MDRSKENCISGPVKATAPVGGPKRVLVTQQFPCQNPLPVNSGQAQRVLCPSNSSQRIPLQAQKLVSSHKPVQNQKQKQLQATSVPHPVSRPLNNTQKSKQPLPSAPENNPEEELASKQKNEESKKRQWALEDFEIGRPLGKGKFGNVYLAREKQSKFILALKVLFKAQLEKAGVEHQLRREVEIQSHLRHPNILRLYGYFHDATRVYLILEYAPLGTVYRELQKLSKFDEQRTATYITELANALSYCHSKRVIHRDIKPENLLLGSAGELKIADFGWSVHAPSSRRTTLCGTLDYLPPEMIEGRMHDEKVDLWSLGVLCYEFLVGKPPFEANTYQETYKRISRVEFTFPDFVTEGARDLISRLLKHNPSQRPMLREVLEHPWITANSSKPSNCQNKESASKQS
[6]
  in vitro tubulin deacetylation assay: AurA-phosphorylated HDAC6 was much more potent than unphosphorylated HDAC6 in deacetylating α-tubulin
[7]
  in vitro kinase assay (32P autoradiography): AurA phosphorylated HDAC6, but not HDAC2 or the GST negative control
[4]; 0.05 μM protein microinjected, low serum medium, as soon as cells could be fixed
  injected cells lacking cilia: more than 80%

B2: D274N: D274N AurA, an inactive mutant (protein, UniProt O14965 1-403, looked up, variant D274N)
Aurora kinase A: B1 chain with D274N
[4]; [8]
  loss of cilia after microinjection: did not induce loss of cilia

B3: T288A: T288A AurA, a hypomorphic mutant (protein, UniProt O14965 1-403, looked up, variant T288A)
Aurora kinase A: B1 chain with T288A
[4]; [8]
  loss of cilia after microinjection: eventual partial loss of cilia
